Data set [1] in a line: Breath test using 13C-alanine in ZDF fatty rats F1 and F2. As to conditions: fed, 50 μmol/kg orally, from the start of the administration. Here is the method:
ZDF fatty rats F1 and F2 mentioned above were placed in the light-dark cycle as described above. 1-^13C-alanine dissolved in physiological saline was administered orally at 50 μmol/kg. Expired air samples were collected before the administration (0 minutes) and at several time points up to 60 minutes after the administration and Δ^13C (%) values were measured using a mass spectrometer for breath analysis (“ABCA” Sercon).

Data set [2] can be described thus: Breath test using 13C-amino acid in fed and fasted ZDF lean rats. Particulars: 50 μmol/kg orally; for time for which the tendency (Δ^13C higher in fasted than in fed state) continued: expired air collected up to 60 minutes. Here is the method: ZDF lean rats were placed in the fed/fasted state and the light-dark cycle as described above. 1-^13C-leucine, 1-^13C-alanine, or 1-^13C-glutamic acid (Cambridge Isotope Laboratories, Inc (Andover, Mass., USA)) dissolved in physiological saline was administered orally at 50 μmol/kg each (n=4 for each amino acid) at 13:00 of Day 2 in the fed state or 13:00 of Day 3 in the fasted state. Expired air samples were collected before the administration (0 minutes) and at several time points up to 60 minutes after the administration and Δ^13C (%) values were measured using a mass spectrometer for breath analysis (“ABCA” Sercon).

For data set [3] the following is noted: ZDF fatty rats (diabetes model), fed, 50 μmol/kg orally, from the start of the administration to the end of the measurement (60 minutes). As to the method:
ZDF fatty rats F1, F2, and F3 mentioned above were placed in the light-dark cycle as described above. 1-^13C-glutamic acid dissolved in physiological saline was administered orally at 50 μmol/kg. Expired air samples were collected before the administration (0 minutes) and at several time points up to 60 minutes after the administration and Δ^13C (%) values were measured using a mass spectrometer for breath analysis (“ABCA” Sercon).

Regarding `C[C@H](N)[13C](=O)O` [1-^13C-alanine], the “time after the administration up to which Δ^13C was higher in F1 rat than in F2 rat” value in data set [1] is listed as “about 50 minutes”. Also, in data set [2], the “time for which the tendency (Δ^13C higher in fasted than in fed state) continued” value is about 20 min.
As to `CC(C)C[C@H](N)[13C](=O)O` [1-^13C-leucine], the “time for which the tendency (Δ^13C higher in fasted than in fed state) continued” value in data set [2] was “about 45 minutes”.
For the compound `N[C@@H](CCC(=O)O)[13C](=O)O` [1-^13C-glutamic acid], the “Δ^13C (%) values of expired air, fasted state compared with fed state” value in data set [2] (10 minutes after the administration, n=4 for each amino acid) was “higher in the fasted state than in the fed state”. In addition, the “time for which the tendency (Δ^13C higher in fasted than in fed state) continued” value in data set [2] is about 40 min. Besides, in data set [3], the “Δ^13C (%) values of expired air, F1 rat (suspected sarcopenia) compared with F2 and F3 rats” value was “higher in F1 rat than in F2 and F3 rats”.

These data come from patent US20200182856A1, “Method of Evaluating Nutriture” (OTSUKA PHARMACEUTICAL CO., LTD., priority 2016, published 2020).
